Assay results from PubChem BioAssay (NCI).
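Method: 48-hour compound exposure of cells in 96-well plates, five concentrations, linear interpolation of endpoints. GI50 is the concentration that inhibits growth by half. At the TGI there is no net growth.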

Assays:
Assay in all cases: DTP human tumour cell line panel, 48 h
[1] = system: NCI-H226 lung
[2] = system: NCI-H23 lung
[3] = system: SF-539 CNS
[4] = system: A549 NSCLC
[5] = system: SW-620 colon
[6] = system: MDA-MB-231 breast
[7] = system: OVCAR-5 ovarian
[8] = system: OVCAR-4 ovarian
[9] = system: NCI-H460 lung
[10] = system: CAKI-1 renal
[11] = system: HCC-2998 colon
[12] = system: HCT-116 colon
[13] = system: OVCAR-8 ovarian
[14] = system: UACC-257 melanoma
[15] = system: RPMI-8226 leukemia
[16] = system: NCI/ADR-RES ovarian
[17] = system: HCT-15 colon
[18] = system: HL-60(TB) leukemia
[19] = system: SK-MEL-2 melanoma
[20] = system: SNB-75 CNS
[21] = system: MDA-MB-435
[22] = system: ACHN renal
[23] = system: UACC-62 melanoma
[24] = system: TK-10 renal
[25] = system: U251 CNS
[26] = system: KM12 colon
[27] = system: SN12C renal
[28] = system: 786-0 renal
[29] = system: SK-MEL-5 melanoma

Work on O=C(CCCCCCNC(=O)C(O)(O)C(F)(F)F)Nc1ncc(-c2ccc(Br)cc2)s1 yielded a TGI [1] of 14400 nM, a GI50 [2] of 1210 nM and a TGI [2] of 6560 nM. For the same compound, the GI50 [3] was 1230 nM, the TGI [3] was > 31800 nM and the GI50 [4] was 1600 nM. The TGI [4] was > 31800 nM, the GI50 [5] was 840 nM and the TGI [5] was 3100 nM. The GI50 [6] was 607 nM, the TGI [6] was 2000 nM and the GI50 [7] was 686 nM. For the same compound, the TGI [7] was 5570 nM, the GI50 [8] was 2480 nM and the TGI [8] was > 31800 nM. The GI50 [9] was 890 nM, the TGI [9] was 8200 nM and the GI50 [10] was 1220 nM. It also gave a TGI [10] of 16800 nM, a GI50 [11] of 1360 nM and a TGI [11] of 4820 nM. For the same compound, the GI50 [12] was 273 nM, the TGI [12] was 6730 nM and the GI50 [13] was 1370 nM. The TGI [13] was > 31800 nM, the GI50 [14] was 1920 nM and the TGI [14] was > 31800 nM. For the same compound, the GI50 [15] was 452 nM, the TGI [15] was > 31800 nM and the GI50 [16] was 1350 nM. The TGI [16] was 7110 nM, the GI50 [17] was 1430 nM and the TGI [17] was 6280 nM. The GI50 [18] was 1620 nM, the TGI [18] was > 31800 nM and the GI50 [19] was 1360 nM. For the same compound, the TGI [19] was 18800 nM, the GI50 [20] was 1840 nM and the TGI [20] was > 31800 nM. The GI50 [21] was 1040 nM, the TGI [21] was > 31800 nM and the GI50 [22] was 908 nM. For the same compound, the TGI [22] was 4830 nM, the GI50 [23] was 675 nM and the TGI [23] was 2380 nM. For the same compound, the GI50 [24] was 456 nM, the TGI [24] was > 31800 nM and the GI50 [25] was 830 nM. For the same compound, the TGI [25] was > 31800 nM, the GI50 [26] was 1250 nM and the TGI [26] was 6660 nM. For the same compound, the GI50 [27] was 1250 nM, the TGI [27] was 18700 nM and the GI50 [28] was 1000 nM. The TGI [28] was > 31800 nM, the GI50 [29] was 972 nM and the TGI [29] was 3430 nM.
